Source: the NIST ThermoML archive (doi:10.1016/j.tca.2007.11.004)
Several values for one entry are separate records, joined by “and”; a condition that tells them apart may be missing. Equal entries are not always repeated.

Settings: Crystal, Transpiration method

O=[Te]=O [tellurium dioxide]
Settings | vapor or sublimation pressure
884 K | 0.0001487 kPa
889 K | 0.0001692 kPa
895 K | 0.0001987 kPa
899 K | 0.0002538 kPa
905 K | 0.0003102 kPa
909 K | 0.0003271 kPa
915 K | 0.0004741 kPa
925 K | 0.0006099 kPa and 0.0006023 kPa and 0.0005679 kPa
926 K | 0.0005409 kPa
935 K | 0.0009295 kPa
940 K | 0.001155 kPa
941 K | 0.001072 kPa
946 K | 0.001255 kPa
951 K | 0.001465 kPa
960 K | 0.002168 kPa
971 K | 0.003407 kPa
976 K | 0.003717 kPa
982 K | 0.004543 kPa
987 K | 0.004956 kPa
